The text below walks through data of article PMC9023544, “Ketone-selenoesters as potential anticancer and multidrug resistance modulation agents in 2D and 3D ovarian and breast cancer in vitro models” (Scientific Reports, 2022).

In one experiment the test system is HOC. Description: Oxidation stress (ROS), Muse Oxidative Stress Kit. The class given is cell-based, human. Conditions: 1 µM (DMSO 5% V/V), 24 h. The protocol:
Selenoesters (K3, K4, K7) were tested for their ability to generate reactive oxygen species (ROS). HOC was exposed to selenoesters in concentration of 1 µM for 24 h. DMSO (5% V/V) was used as a positive control. The required volume of DMSO (1% V/V) was added to untreated cells. ROS are essential biomolecules in cellular regulation as a part of the defence mechanisms. On the other hand, their participation in cell signalling may affect apoptosis and other death pathways. In the assay, dihydroethidium (DHE) reacts with superoxide anions by forming DNA-binding fluorophore ethidium bromide. Based on fluorescence, the cell population can be distinguished into ROS negative and ROS positive cells containing oxygen radicals.
To determine the oxidation stress potential of selected selenoesters, HOC were seeded into 24-well plates at a density 2 × 10^5 cells/mL for 24 h according to the above mentioned procedure. Afterwards, the plates were washed 1 ×with PBS and fresh DMEM medium containing compounds K3, K4, K7 (final concentration—1 µM) was added for 24 h, except for the positive and negative control. […] as the oxidation stress inductor. After incubation, the cells were washed 1× with PBS and released from the surface by using a trypsin–EDTA solution. After trypsin inhibition by medium addition, the cell suspensions were centrifuged (100×g, 5 min, 25 °C), supernatants were removed, and cell pellets resuspended in 1× assay buffer. All reagents were prepared immediately before use. Afterwards, 10 µL of the cell suspension were mixed with 190 µL of working solution (Muse Oxidative stress reagent) and stained for 30 min at 37 °C. Subsequently, the […] were analysed by Guava Muse Cell Analyzer. Oxidation stress detection was performed following the instructions provided by the manufacturer.

Experiment [1] relates to MCF-7/PAX (paclitaxel-resistant sub-line). In words: Cytotoxic activity, 2D, resazurin, 72 h. It is filed as cell-based, human. Conditions: for IC50: Homo sapiens, MCF7, 72 h, read-out: MCF-7/PAX IC50; for SI HEK293/MC7-7/PAX: IC50 HEK293 / IC50 MCF-7/PAX; for CS (collateral sensitivity index): IC50 MCF-7 / IC50 MCF-7/PAX; for IC10 of compounds: MCF-7/PAX. As for the experimental part:
(§1) The cytotoxic potential of selenoesters was tested on several cancer cell lines—HOC (human parental ovarian adenocarcinoma, HOC, A2780, Sigma-Aldrich), HOC/ADR (sub-line resistant to Adriamycin, A2780/ADR, Sigma-Aldrich), MCF-7 (human breast adenocarcinoma, ATCC®, HTB-22TM), MCF-7/PAX (resistant sub-line established by gradual adaptation of parental cells to increased concentration of paclitaxel; kindly provided by Division of Cell and Molecular Biology, Third Faculty of Medicine, Charles University, Czech Republic) and on one non-cancerous cell line—HEK293 (human embryonic kidney cell line, Leibniz Institute, DSMZ-German Collection of Microorganisms and Cell Cultures GmbH). All mentioned cell lines were authenticated using short tandem repeat (STR) profiling. Cell lines were cultivated in DMEM medium (10% FBS, 1× antibiotic antimycotic solution), except for HEK293 cell line which was cultivated without antibiotics. In case of the resistant cell lines, the medium was supplemented with a required concentration of cytostatics to maintain resistance (HOC/ADR—100 nM Adriamycin; MCF-7/PAX—300 nM paclitaxel). All cells were cultivated in a CO2 incubator (5% CO2, 37 °C, Thermo Fisher Scientific).
(§2) For the experiment, the cells at passage number 5–20 were seeded at a 1 × 10^5 cells/mL concentration into 96-well plates to 100 µL final volume. The final concentration range of the compounds was 0.63–20 µM. After an incubation of 72 h, the plates were washed 1× with PBS and resazurin solution (0.03 mg/mL in 1× PBS) was added. After 1 h of incubation, the fluorescence signal was recorded (ex./em. 560/590 nm).
(§3) The selectivity index (SI) was determined as the ratio of IC50 value for the non-cancerous cells to IC50 for the cancer cell line. For resistant cell lines, the collateral sensitivity (CS) was calculated as the ratio of IC50 value in sensitive tumour cells to IC50 in the resistant cancer cell line. In both cases, the selectivity is considered as: (1) strongly selective when SI or CS value is above 6, (2) moderately selective when SI or CS is between 3 and 6, (3) slightly selective when SI or CS is between 1 and 3 and (4) non-selective when SI or CS is less than 1[23].
A general note: Resazurin is reduced to fluorescent resorufin, in cell work by metabolically active cells.

Experiment [2] deals with HOC/ADR (sub-line resistant to Adriamycin, A2780/ADR). In words: Cytotoxic activity, 2D, resazurin, 72 h. The class given is cell-based, human. Conditions: for IC50 / IC10: Homo sapiens, A2780 ADR, 72 h; for IC50: read-out: HOC/ADR IC50; for IC10: read-out: IC10 of compounds; for SI HEK293/HOC/ADR: IC50 HEK293 / IC50 HOC/ADR; for CS (collateral sensitivity index): IC50 HOC / IC50 HOC/ADR. As for the experimental part: as §1, §2, §3

Experiment [3] deals with HOC (human parental ovarian adenocarcinoma, A2780). In words: Cytotoxic activity, 2D, resazurin, 72 h. The settings on record: for IC50: Homo sapiens, A2780, 72 h, read-out: HOC IC50; for SI HEK293/HOC: IC50 HEK293 / IC50 HOC. The class given is cell-based. The protocol:
as §1, §2, §3

For experiment [4], the system named is MCF-7 (human breast adenocarcinoma). Description: Cytotoxic activity, 2D, resazurin, 72 h. The class given is cell-based. The settings on record: for IC50: Homo sapiens, MCF7, 72 h, read-out: MCF-7 IC50; for SI HEK293/MCF-7: IC50 HEK293 / IC50 MCF-7. The protocol:
as §1, §2, §3

The term IC10 denotes the concentration at which the effect reaches the 10% level. In the case of `CC(=O)C[Se]C(=O)c1ccc(Br)cc1` [K3], in the experiment on HOC, the “ROS(+) cells” value is listed as 29.1 ± 4.2 % and the “ROS(−) cells” value came to 70.8 ± 4.2 %. Also, in experiment [1], the IC50 was 2100 ± 100 nM, the “SI HEK293/MC7-7/PAX” value amounted to 1.1 ± 0.1, the “CS (collateral sensitivity index)” value is listed as 1.0 ± 0.3 and the IC10 of compounds was found to be 1200 nM. Moreover, in experiment [2], the IC50 was 2600 ± 100 nM, the IC10 was 2000 nM, the “SI HEK293/HOC/ADR” value is 0.9 ± 0.0 and the “CS (collateral sensitivity index)” value is 0.7 ± 0.1. In experiment [3], the IC50 was 1800 nM and the “SI HEK293/HOC” value came out at 1.3 ± 0.0. In addition, in experiment [4], the IC50 worked out at 2000 ± 500 nM and the “SI HEK293/MCF-7” value turned out to be 1.2 ± 0.3.

As for `CC(=O)C[Se]C(=O)c1ccccc1C(F)(F)F` [K4], in the experiment with HOC, the “ROS(+) cells” value is 14.5 ± 1.5 % and the “ROS(−) cells” value is listed as 85.5 ± 1.6 %. In addition, in experiment [1], the IC50 was 3300 ± 300 nM, the “SI HEK293/MC7-7/PAX” value amounted to 1.6 ± 0.2, the “CS (collateral sensitivity index)” value is recorded as 0.6 ± 0.0 and the IC10 of compounds came out at 1800 nM. Also, in experiment [2], the IC50 turned out to be 3600 ± 100 nM, the IC10 came out at 2900 nM, the “SI HEK293/HOC/ADR” value is given as 1.5 ± 0.2 and the “CS (collateral sensitivity index)” value came to 0.6 ± 0.0. In experiment [3], the IC50 was 2200 ± 100 nM and the “SI HEK293/HOC” value amounted to 2.5 ± 0.2. Moreover, in experiment [4], the IC50 is 1800 ± 100 nM and the “SI HEK293/MCF-7” value stood at 2.9 ± 0.3.

As for `CC(=O)C[Se]C(=O)c1ccc(C(C)(C)C)cc1` [K7], in the experiment on HOC, the “ROS(+) cells” value amounted to 22.3 ± 0.4 % and the “ROS(−) cells” value is on record as 77.7 ± 0.4 %. Also, in experiment [1], the IC50 was found to be 2400 ± 100 nM, the “SI HEK293/MC7-7/PAX” value is listed as 0.6 ± 0.1, the “CS (collateral sensitivity index)” value is given as 0.8 ± 0.1 and the IC10 of compounds was found to be 1300 nM. In experiment [2], the IC50 worked out at 3100 ± 300 nM, the IC10 was determined as 1800 nM, the “SI HEK293/HOC/ADR” value came out at 0.5 ± 0.1 and the “CS (collateral sensitivity index)” value is on record as 0.4 ± 0.1. In addition, in experiment [3], the IC50 turned out to be 1100 ± 100 nM and the “SI HEK293/HOC” value came to 1.7 ± 0.2. For the same compound, in experiment [4], the IC50 came out at 1900 ± 100 nM and the “SI HEK293/MCF-7” value turned out to be 0.8 ± 0.1.
